Assay results: publication PMC4377999, “Kalkitoxin Inhibits Angiogenesis, Disrupts Cellular Hypoxic Signaling, and Blocks Mitochondrial Electron Transport in Tumor Cells” (Marine Drugs, 2015)

Target: T1, mitochondrial electron transport chain complex I (NADH-ubiquinone oxidoreductase) (Homo sapiens, UniProt O75251+O75306+P03886)
T1 construct: gene NDUFS2; native multi-subunit complex in digitonin-permeabilized T47D cells
Experiment: oxygen consumption (Clark-type electrode) in permeabilized T47D cells with malate/pyruvate, succinate bypass; […]
Format: cell-based

## C=C[C@@H]1CSC(C[C@@H](C)[C@@H](C)C[C@H](C)CCN(C)C(=O)[C@H](C)CC)=N1 [kalkitoxin]
  oxygen consumption (Clark-type electrode) in permeabilized T47D cells with malat: kalkitoxin potently suppresses mitochondrial respiration in tumor cells by selectively inhibiting ETC complex I
